Experimental data taken from US20230069886A1, “AROMATIC SULPHONAMIDES DERIVATIVES THAT INHIBITS PDI A3, THEIR SYNTHESIS AND USE” (Uniwersytet Jagiellonski, priority 2020, published 2023).

Tested on: not given
Test: not given
Conditions: not given

melting point | Structure (SMILES)
170 to 172 °C | CNc1ccc2cc(S(=O)(=O)N3CC3C(=O)OC)ccc2c1Cl (stereo not shown) [Compound C-3393, Methyl 1-[[5-chloro-6-(methylamino)-2-naphthyl]sulfonyl]aziridine-2-carboxylate]
106 to 108 °C | COC(=O)C1CN1S(=O)(=O)c1ccc([N+](=O)[O-])cc1 (stereo not shown) [Compound C-3212, Methyl 1-(4-nitrophenyl)sulfonylaziridine-2-carboxylate]
139 to 141 °C | NC(=O)C1CN1S(=O)(=O)c1ccc(N)cc1 (stereo not shown) [Compound C-3218, 1-(4-Aminophenyl)sulfonylaziridine-2-carboxamide]
139 to 141 °C | COC(=O)C1CN1S(=O)(=O)c1ccc2[nH]c(=O)ccc2c1 (stereo not shown) [Compound C-3350, Methyl 1-[(2-oxo-1H-quinolin-6-yl)sulfonyl]aziridine-2-carboxylate]
147 to 149 °C | NC(=O)C1CN1S(=O)(=O)c1cccnc1 (stereo not shown) [Compound C-3562, 1-(3-pyridylsulfonyl)aziridine-2-carboxamide]
42 to 44 °C | COC(=O)C1CN1S(=O)(=O)c1ccc2oc(=O)ccc2c1 (stereo not shown) [Compound C-3355, Methyl 1-(2-oxochromen-6-yl)sulfonylaziridine-2-carboxylate]

Biological target: T1, PDI A3 (Homo sapiens, UniProt P30101)
T1 construct: purchased Mybiosource; host or cells: E. coli
T1 sequence (P30101 25-505): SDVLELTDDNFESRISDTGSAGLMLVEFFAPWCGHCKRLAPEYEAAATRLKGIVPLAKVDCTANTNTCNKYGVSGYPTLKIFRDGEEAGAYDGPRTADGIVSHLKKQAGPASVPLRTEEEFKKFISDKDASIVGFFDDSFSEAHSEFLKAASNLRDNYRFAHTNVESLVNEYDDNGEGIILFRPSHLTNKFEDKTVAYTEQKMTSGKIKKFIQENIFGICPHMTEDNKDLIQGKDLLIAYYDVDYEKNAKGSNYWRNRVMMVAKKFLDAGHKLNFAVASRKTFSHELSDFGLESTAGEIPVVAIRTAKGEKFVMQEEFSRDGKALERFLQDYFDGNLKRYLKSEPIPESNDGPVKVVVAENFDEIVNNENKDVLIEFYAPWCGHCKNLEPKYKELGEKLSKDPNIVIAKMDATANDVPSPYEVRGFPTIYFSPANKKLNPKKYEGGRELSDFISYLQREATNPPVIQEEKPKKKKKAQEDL
Test: PDI A3 inhibition, insulin turbidimetric assay
Type: biochemical
Conditions: 10 ug/ml PDI A3, incubated 60 min at 37° C., turbidity at 650 nm; read-out: Inhibition of PDI A3 (EC 50)
Method: The inhibitory effects compounds of invention on activity of PDIA3 was assess based on the insulin turbidimetric assay. Enzymatic activity of PDIA3 was confirmed by measuring the turbidity increase at 650 nm due to insulin reduction. The assay mixture was prepared by addition 10 ug/ml PDI A3 (E. coli recombinant protein; Mybiosource), […] phosphate buffer (pH7.6), 1 mM EDTA, 0.087 mM DTT and with or without tested compound and was incubated for 60 min, at 37° C. Reaction was started by addition of insulin and DTT. Final concentration of insulin and DTT in assay mixture were 0.15 mMv and 0.174 mMv, respectively. Turbidity was detected at 650 nm against reference samples without PDJs. The measurements were performed at 650 nm using 120-s recordings.

EC50 | Structure (SMILES)
> 200 µM | CCCCCc1ccc(S(=O)(=O)N2CC2C(=O)OC)cc1 (stereo not shown) [Compound C-3281, Methyl 1-(4-pentylphenyl)sulfonylaziridine-2-carboxylate]
27 µM | CNc1ccc2cc(S(=O)(=O)N3CC3C(=O)OC)ccc2c1Cl (stereo not shown) [Compound C-3393, Methyl 1-[[5-chloro-6-(methylamino)-2-naphthyl]sulfonyl]aziridine-2-carboxylate]
9.3 µM | NC(=O)C1CN1S(=O)(=O)c1ccccc1 (stereo not shown) [Compound C-3532, 1-(Benzenesulfonyl)aziridine-2-carboxamide]
90 µM | COC(=O)C1CN1S(=O)(=O)c1cccc2ccccc12 (stereo not shown) [Compound C-3311, Methyl 1-(1-naphthylsulfonyl)aziridine-2-carboxylate]
> 200 µM | COC(=O)C1CN1S(=O)(=O)c1cccc(C(F)(F)F)c1 (stereo not shown) [Compound C-3305, Methyl 1-[3-(trifluoromethyl)phenyl]sulfonylaziridine-2-carboxylate]
29 µM | CC(C)(C)c1ccc(S(=O)(=O)N2CC2C(N)=O)cc1 (stereo not shown) [Compound C-3591, 1-(4-tert-Butylphenyl)sulfonylaziridine-2-carboxamide]
> 200 µM | COC(=O)C1CN1S(=O)(=O)c1cccc(C)c1 (stereo not shown) [Compound C-3303, Methyl 1-(m-tolylsulfonyl)aziridine-2-carboxylate]
32 µM | COC(=O)C1CN1S(=O)(=O)c1ccc([N+](=O)[O-])cc1 (stereo not shown) [Compound C-3212, Methyl 1-(4-nitrophenyl)sulfonylaziridine-2-carboxylate]
11.1 µM | CN(C)C(=O)C1CN1S(=O)(=O)c1ccc(N(C)C)c2ccccc12 (stereo not shown) [Compound C-3385, 1-[[4-(Dimethylamino)-1-naphthyl]sulfonyl]-N,N-dimethylaziridine-2-carboxamide]
> 200 µM | CN(C)C(=O)C1CN1S(=O)(=O)c1ccc(N(C)C)cc1 (stereo not shown) [Compound C-3357, 1-[4-(Dimethylamino)phenyl]sulfonyl-N,N-dimethyl-aziridine-2-carboxamide]
24 µM | Cc1ccc(S(=O)(=O)N2CC2C#N)cc1 (stereo not shown) [Compound C-3314, 1-(p-Tolylsulfonyl)aziridine-2-carbonitrile]
> 200 µM | CCCCCCCCCCCCc1ccc(S(=O)(=O)N2CC2C(=O)OC)cc1 (stereo not shown) [Compound C-3270, Methyl 1-(4-dodecylphenyl)sulfonylaziridine-2-carboxylate]
> 200 µM | COC(=O)C1CN1S(=O)(=O)c1ccc(C(F)(F)F)cc1 (stereo not shown) [Compound C-3256, Methyl 1-[4-(trifluoromethyl)phenyl]sulfonylaziridine-2-carboxylate]
4.3 µM | CN(C)C(=O)C1CN1S(=O)(=O)c1cccc2cc(N(C)C)ccc12 (stereo not shown) [Compound C-3377, 1-[[6-(Dimethylamino)-1-naphthyl]sulfonyl]-N,N-dimethylaziridine-2-carboxamide]
22 µM | Cc1ccc(S(=O)(=O)N2CC2C(N)=O)cc1 (stereo not shown) [Compound C-3220, 1-(p-Tolylsulfonyl)aziridine-2-carboxamide]
143 µM | COC(=O)C1CN1S(=O)(=O)c1ccc(F)cc1F (stereo not shown) [Compound C-3353, Methyl 1-(2,4-difluorophenyl)sulfonylaziridine-2-carboxylate]

EC50 | Structure (SMILES)
18.6 µM | COC(=O)C1CN1S(=O)(=O)c1cccnc1 (stereo not shown) [Compound C-3559, Methyl 1-(3-pyridylsulfonyl)aziridine-2-carboxylate]
5.3 µM | COC(=O)[C@@H]1CN1S(=O)(=O)c1cccc2cc(N(C)C)ccc12 (stereo partly drawn) [Compound C-3548, Methyl (2S)-1-[[6-(dimethylamino)-1-naphthyl]sulfonyl]aziridine-2-carboxylate]
68.4 µM | COC(=O)[C@H]1CN1S(=O)(=O)c1cccc2cc(N(C)C)ccc12 (stereo partly drawn) [Compound C-3570, Methyl (2R)-1-[[6-(dimethylamino)-1-naphthyl]sulfonyl]aziridine-2-carboxylate]
10.5 µM | CN(C)C(=O)C1CN1S(=O)(=O)c1ccc2cc(N(C)C)ccc2c1 (stereo not shown) [Compound C-3398, 1-[[6-(Dimethylamino)-2-naphthyl]sulfonyl]-N,N-dimethylaziridine-2-carboxamide]
37 µM | CCCCCCc1ccc(S(=O)(=O)N2CC2C(=O)NC)cc1 (stereo not shown) [Compound C-3380, 1-(4-Hexylphenyl)sulfonyl-N-methyl-aziridine-2-carboxamide]
27 µM | COC(=O)C1CN1S(=O)(=O)c1ccc(C)cc1 (stereo not shown) [Compound C-3161, Methyl 1-(p-tolylsulfonyl)aziridine-2-carboxylate]
48 µM | COC(=O)C1CN1S(=O)(=O)c1ccc2[nH]c(=O)ccc2c1 (stereo not shown) [Compound C-3350, Methyl 1-[(2-oxo-1H-quinolin-6-yl)sulfonyl]aziridine-2-carboxylate]
30 µM | CCOC(=O)C1CN1S(=O)(=O)c1ccc(C)cc1 (stereo not shown) [Compound C-3537, Ethyl 1-(p-tolylsulfonyl)aziridine-2-carboxylate]
6.8 µM | COC(=O)[C@@H]1CN1S(=O)(=O)c1ccc(C)cc1 (stereo partly drawn) [Compound C-3535, Methyl (2S)-1-(p-tolylsulfonyl)aziridine-2-carboxylate]
56 µM | NC(=O)C1CN1S(=O)(=O)c1cccnc1 (stereo not shown) [Compound C-3562, 1-(3-pyridylsulfonyl)aziridine-2-carboxamide]
24 µM | CN(C)C(=O)C1CN1S(=O)(=O)c1ccc(F)cc1F (stereo not shown) [Compound C-3403, 1-(2,4-Difluorophenyl)sulfonyl-N,N-dimethyl-aziridine-2-carboxamide]
> 200 µM | COC(=O)C1CN1S(=O)(=O)c1ccc(C)cc1F (stereo not shown) [Compound C-3297, Methyl 1-(2-fluoro-4-methyl-phenyl)sulfonylaziridine-2-carboxylate]
61 µM | COC(=O)C1CN1S(=O)(=O)c1ccc2oc(=O)ccc2c1 (stereo not shown) [Compound C-3355, Methyl 1-(2-oxochromen-6-yl)sulfonylaziridine-2-carboxylate]
11.7 µM | CN(C)C(=O)C1CN1S(=O)(=O)c1ccc(C2CCCCC2)cc1 (stereo not shown) [Compound C-3384, 1-(4-Cyclohexylphenyl)sulfonyl-N,N-dimethyl-aziridine-2-carboxamide]
102 µM | CCCCCCc1ccc(S(=O)(=O)N2CC2C(=O)N2CCCC2)cc1 (stereo not shown) [Compound C-3511, [1-(4-Hexylphenyl)sulfonylaziridin-2-yl]-pyrrolidin-1-yl-methanone]

Structure (SMILES) | EC50
CCCCc1ccc(S(=O)(=O)N2CC2C(C)=O)cc1 (stereo not shown) [Compound C-3272, 1-[1-(4-Butylphenyl)sulfonylaziridin-2-yl]ethanone] | 43 µM
CC(=O)C1CN1S(=O)(=O)c1ccc(C)cc1 (stereo not shown) [Compound C-3263, 1-[1-(p-Tolylsulfonyl)aziridin-2-yl]ethanone] | 98 µM

Tested on: MCF-7
Test: MTT antiproliferative assay, 48 h, MCF-7
Type: cell-based, human
Conditions: Homo sapiens, MCF7, 48-hour exposition, read-out: Cytotoxicity, IC50, μM MCF-7
Method: (§1) Anticancer activity of compounds of invention, PDI A3-inhibitors has been tested in vitro in classical antiproliferative assay in various cancer cells lines. Monolayer tumor cell lines MDA-MB-231 (human mammary breast adenocarcinoma), MCF-7 (human breast adenocarcinoma, estrogen-positive), HT-1080 (human fibrosarcoma) and Caco-2 (human colon adenocarcinoma) were cultured in standard medium DMEM (Dulbecco's modified Eagle's medium) (“Sigma”) supplemented with 10% foetal bovine serum (“Sigma”). About 2000-4000 cells per well (depending on line nature) were placed in 96-well plates and after 24 h compounds were added to the wells. Untreated cells were used as a control. The plates were incubated for 48 h, 37° C., 5% CO2. The number of surviving cells was determined using 3-(4,5-dimethylthiazol-2-yl)-2,5-diphenyltetrazolinium bromide (MTT). MTT-test: after incubating culture medium was removed and 200 μL fresh medium with 20 μL MTT (2 mg/mL in HBSS) was added in each well of the plate. After incubation (3 hr., 37° C., 5% CO2), the medium with MTT was removed and 200 μL DMSO were added at once to each sample. The samples were tested at 540 nm on Thermo Scientific Multiskan EX microplate photometer. The half-maximal inhibitory concentration (IC50) of each compound was calculated using Graph Pad Prism® 3.0.

Structure (SMILES) | IC50
COC(=O)C1CN1S(=O)(=O)c1ccc(C(C)(C)C)cc1 (stereo not shown) [Compound C-3290, Methyl 1-(4-tert-butylphenyl)sulfonylaziridine-2-carboxylate] | 29 ± 4 µM
CN(C)C(=O)C1CN1S(=O)(=O)c1cccc2cc(N(C)C)ccc12 (stereo not shown) [Compound C-3377, 1-[[6-(Dimethylamino)-1-naphthyl]sulfonyl]-N,N-dimethylaziridine-2-carboxamide] | 4.8 ± 0.1 µM
CCCCCCc1ccc(S(=O)(=O)N2CC2C(=O)OC)cc1 (stereo not shown) [Compound C-3287, Methyl 1-(4-hexylphenyl)sulfonylaziridine-2-calboxylate] | 123 ± 17 µM

Tested on: MDA-MB-231
Test: MTT antiproliferative assay, 48 h, MDA-MB-231
Type: cell-based, human
Conditions: Homo sapiens, MDA-MB-231, 48-hour exposition, read-out: Cytotoxicity, IC50, μM MDA-MB-231
Method: as §1

Structure (SMILES) | IC50
CCCCCCc1ccc(S(=O)(=O)N2CC2C(=O)N2CCOCC2)cc1 (stereo not shown) [Compound C-3517, [1-(4-Hexylphenyl)sulfonylaziridin-2-yl]-morpholino-methanone] | 12 ± 1 µM
